Test results taken from ChEMBL document CHEMBL2046294, “Lipo-γ-AApeptides as a new class of potent and broad-spectrum antimicrobial agents” (J Med Chem, 2012).
≈ marks a conversion by molar mass, not a printed value. Calls of active or inactive are those of the source. No cut-off for these calls is given here.

Tests used:
Escherichia coli [1] = assay: Antibacterial activity against Escherichia coli JM109 after 24 hrs by broth micro-dilution method; assay type: functional; details: JM109, 24 h
Klebsiella pneumoniae = assay: Antibacterial activity against Klebsiella pneumoniae ATCC 13383 after 24 hrs by broth micro-dilution method; assay type: functional; details: ATCC 13383, 24 h
Pseudomonas aeruginosa = assay: Antibacterial activity against multidrug-resistant Pseudomonas aeruginosa ATCC 27853 after 24 hrs by broth micro-dilution method; assay type: functional; details: ATCC 27853, 24 h
Bacillus subtilis [2] = assay: Antibacterial activity against Bacillus subtilis BR151 after 24 hrs by broth micro-dilution method; assay type: functional; details: BR151, 24 h
[3] = tested on: Staphylococcus epidermidis; assay: Antibacterial activity against multidrug-resistant Staphylococcus epidermidis RP62A after 24 hrs by broth micro-dilution method; assay type: functional
Enterococcus faecalis = assay: Antibacterial activity against vancomycin-resistant Enterococcus faecalis ATCC 700802 after 24 hrs by broth micro-dilution method; assay type: functional; details: ATCC 700802, 24 h
Staphylococcus aureus [4] = assay: Antibacterial activity against methicillin-resistant Staphylococcus aureus ATCC 33592 after 24 hrs by broth micro-dilution method; assay type: functional; details: ATCC 33592, 24 h
Candida albicans = assay: Antifungal activity against Candida albicans ATCC 10231 after 48 hrs by broth micro-dilution method; assay type: functional; details: ATCC 10231, 48 h
[5] = Toxicity in human RBC assessed as hemolysis after 1 hr; assay type: cell-based, Erythrocyte; details: for HC10: erythrocyte, 1 h; for HC50 at 1 h: red blood cells
[6] = Selectivity ratio of HC50 for human RBC to MIC for methicillin-resistant Staphylococcus aureus ATCC 33592; assay type: functional
Staphylococcus aureus [7] = assay: Antibacterial activity against methicillin-resistant Staphylococcus aureus ATCC 33592 assessed as lipid membrane depolarization after 10 mins by DiSC3-5 staining-based fluorescence analysis; assay type: functional, organism-based
Escherichia coli [8] = assay: Antibacterial activity against Escherichia coli JM109 assessed as membrane disruption at 10 ug/ml after 2 hrs by DAPI staining-based fluorescence microscopic analysis; assay type: functional, organism-based
Escherichia coli [9] = assay: Antibacterial activity against Escherichia coli JM109 assessed as membrane disruption at 10 ug/ml after 2 hrs by propidium iodide staining-based fluorescence microscopic analysis; assay type: functional, organism-based
Bacillus subtilis [10] = assay: Antibacterial activity against Bacillus subtilis BR151 assessed as membrane disruption at 10 ug/ml after 2 hrs by DAPI staining-based fluorescence microscopic analysis; assay type: functional, organism-based
Bacillus subtilis [11] = assay: Antibacterial activity against Bacillus subtilis BR151 assessed as membrane disruption at 10 ug/ml after 2 hrs by propidium iodide staining-based fluorescence microscopic analysis; assay type: functional, organism-based
Escherichia coli [12] = assay: Antibacterial activity against Escherichia coli JM109 assessed as loss membrane potential at 10 ug/ml; assay type: functional, organism-based
Bacillus subtilis [13] = assay: Antibacterial activity against Bacillus subtilis BR151 assessed as loss membrane potential at 10 ug/ml; assay type: functional, organism-based
Staphylococcus aureus [14] = assay: Antibacterial activity against methicillin-resistant Staphylococcus aureus ATCC 33592 grown on half-MIC concentration for 17 passages measured after 17 days by broth-microdilution method; assay type: functional, organism-based
N2a [15] = assay: Toxicity against mouse N2A cells expressing amyloid precursor protein up to 50 ug/ml after 36 hrs by MTT assay; assay type: cell-based
N2a [16] = assay: Toxicity against mouse N2A cells expressing amyloid precursor protein up to 100 ug/ml after 36 hrs by MTT assay; assay type: cell-based
[17] = Selectivity for Escherichia coli JM109 over mouse N2A cells expressing amyloid precursor protein
[18] = Selectivity for Klebsiella pneumoniae ATCC 13383 over mouse N2A cells expressing amyloid precursor protein
[19] = Selectivity for Bacillus subtilis BR151 over mouse N2A cells expressing amyloid precursor protein
Staphylococcus aureus [20] = assay: Resistance ratio, MIC for methicillin-resistant Staphylococcus aureus ATCC 33592 grown on half-MIC concentration for 3 passages to MIC for methicillin-resistant Staphylococcus aureus ATCC 33592 after 24 hrs; assay type: functional

SMILES | MIC (Escherichia coli [1]) [µg/mL] | MIC (Klebsiella pneumoniae) [µg/mL] | MIC (Pseudomonas aeruginosa) [µg/mL] | MIC (Bacillus subtilis [2]) [µg/mL] | MIC [3] [µg/mL] | MIC (Enterococcus faecalis) [µg/mL] | MIC (Staphylococcus aureus [4]) [µg/mL] | MIC (Candida albicans) [µg/mL] | HC10 [5] [µg/mL] | HC50 at 1 h [5] [µg/mL] | Ratio [6] | Activity (Staphylococcus aureus [7]) | further results
CCCCCCCC/C=C\CCCCCCCC(=O)N[C@@H](CCCCN)CN(CC(=O)N[C@@H](CCCCN)CN(CC(N)=O)C(=O)CCCN)C(=O)CCCN | 10 (≈ 12.6 µM) | 15 (≈ 18.9 µM) | 3 (≈ 3.78 µM) | 2.5 (≈ 3.15 µM) | 4 (≈ 5.04 µM) | 5 (≈ 6.3 µM) | 5 (≈ 6.3 µM) | 2 (≈ 2.52 µM) | 250 | > 500 | > 100 | Active | –
CC(C)C[C@@H](CN(CC(=O)N[C@@H](CCCCN)CN(CC(N)=O)C(=O)CCc1ccccc1)C(=O)CCc1ccccc1)NC(=O)CN(C[C@H](CCCCN)NC(=O)CN(C[C@H](CCCCN)NC(=O)CN(C[C@H](CC(C)C)NC(=O)CN(C[C@H](CCCCN)NC(=O)CN(C[C@@H](N)CCCCN)C(=O)CCc1ccccc1)C(=O)CCc1ccccc1)C(=O)CCc1ccccc1)C(=O)CCc1ccccc1)C(=O)CCc1ccccc1 | 3 (≈ 1.42 µM) | 5 (≈ 2.37 µM) | > 50 | 2 (≈ 0.947 µM) | 5 (≈ 2.37 µM) | 5 (≈ 2.37 µM) | 5 (≈ 2.37 µM) | 8 (≈ 3.79 µM) | 75 | 300 | 60 | – | –
CCCCCCCCCCCCCCCC(=O)N[C@@H](C)CN(CC(=O)N[C@@H](C)CN(CC(=O)N[C@@H](Cc1ccccc1)CN(CC(=O)N[C@@H](Cc1ccccc1)CN(CC(=O)N[C@@H](Cc1ccccc1)CN(CC(N)=O)C(=O)CC(=O)O)C(=O)CC(=O)O)C(=O)CC(=O)O)C(C)=O)C(C)=O | > 100 | > 100 | > 100 | > 100 | > 100 | > 100 | > 100 | > 100 | 200 | > 500 | – | – | –
CCCCCCCC/C=C\CCCCCCCC(=O)N[C@@H](CCCCN)C(=O)N[C@@H](CCCCN)CN(CC(N)=O)C(=O)CCCN | 10 (≈ 15 µM) | 40 (≈ 60.1 µM) | 15 (≈ 22.5 µM) | 2 (≈ 3 µM) | 2 (≈ 3 µM) | 2.5 (≈ 3.75 µM) | 5 (≈ 7.51 µM) | 5 (≈ 7.51 µM) | 80 | > 500 | > 100 | Active | –
CCCCCCCC/C=C\CCCCCCCC(=O)N[C@@H](CCCCN)CN(CC(N)=O)C(=O)CCCN | 2.5 (≈ 4.65 µM) | 35 (≈ 65.1 µM) | 3 (≈ 5.58 µM) | 2 (≈ 3.72 µM) | 2 (≈ 3.72 µM) | 2.5 (≈ 4.65 µM) | 4 (≈ 7.44 µM) | 2 (≈ 3.72 µM) | 40 | 100 | 25 | Active | –
CCCCCCCCCCCCCCCC(=O)N[C@@H](C)CN(CC(=O)N[C@@H](C)CN(CC(=O)N[C@@H](CCCCN)CN(CC(=O)N[C@@H](CCCCN)CN(CC(=O)N[C@@H](CCCCN)CN(CC(N)=O)C(=O)CCCN)C(=O)CCCN)C(=O)CCCN)C(C)=O)C(C)=O | 2.5 (≈ 1.87 µM) | 15 (≈ 11.2 µM) | 15 (≈ 11.2 µM) | 2.5 (≈ 1.87 µM) | 10 (≈ 7.48 µM) | 10 (≈ 7.48 µM) | 10 (≈ 7.48 µM) | 7.5 (≈ 5.61 µM) | 200 | > 500 | > 50 | Active | –
CCCCCCCCCCCCCCCC(=O)N[C@@H](C)CN(CC(=O)N[C@@H](C)CN(CC(=O)N[C@@H](CC(C)C)CN(CC(=O)N[C@@H](CC(C)C)CN(CC(=O)N[C@@H](CC(C)C)CN(CC(N)=O)C(=O)CCCN)C(=O)CCCN)C(=O)CCCN)C(C)=O)C(C)=O | 2.5 (≈ 1.94 µM) | 5 (≈ 3.87 µM) | 5 (≈ 3.87 µM) | 2.5 (≈ 1.94 µM) | 4 (≈ 3.1 µM) | 5 (≈ 3.87 µM) | 4 (≈ 3.1 µM) | 5 (≈ 3.87 µM) | 60 | > 500 | > 125 | Active | Activity (Escherichia coli [8]): Active; Activity (Escherichia coli [9]): Active; Activity (Bacillus subtilis [10]): Active; Activity (Bacillus subtilis [11]): Active; Activity (Escherichia coli [12]): Active; Activity (Bacillus subtilis [13]): Active; Activity (Staphylococcus aureus [14]): Active; Activity (N2a [15]): Non-toxic; Activity (N2a [16]): 50%; Ratio [17]: 10; Ratio [18]: 10; Ratio [19]: 10
CCCCCCCCCCCCCCCC(=O)N[C@@H](CCCCN)CN(CC(=O)N[C@@H](CCCCN)CN(CC(N)=O)C(=O)CCCN)C(=O)CCCN | 30 (≈ 39.1 µM) | 20 (≈ 26 µM) | 20 (≈ 26 µM) | 1.5 (≈ 1.95 µM) | 2.5 (≈ 3.25 µM) | 8 (≈ 10.4 µM) | 5 (≈ 6.51 µM) | 2 (≈ 2.6 µM) | 40 | 300 | 60 | Active | –
CCCCCCCCCCCCCCCC(=O)N[C@@H](CCCCN)CN(CC(=O)N[C@@H](CCCCN)CN(CC(=O)N[C@@H](CCCCN)CN(CC(N)=O)C(=O)CCCN)C(=O)CCCN)C(=O)CCCN | 20 (≈ 19.5 µM) | > 50 | 15 (≈ 14.6 µM) | 1.5 (≈ 1.46 µM) | 2 (≈ 1.95 µM) | 10 (≈ 9.76 µM) | 5 (≈ 4.88 µM) | 2 (≈ 1.95 µM) | 300 | > 500 | > 100 | Active | –
CCn1cc(C(=O)O)c(=O)c2cc(F)c(N3CCNCC3)cc21 [NORFLOXACIN] | – | – | – | – | – | – | – | – | – | – | – | – | Ratio (Staphylococcus aureus [20]): >20
CCCCCCCCCCCCCCCC(=O)N[C@@H](C)CN(CC(=O)N[C@@H](C)CN(CC(=O)N[C@@H](CCC(=O)O)CN(CC(=O)N[C@@H](CCC(=O)O)CN(CC(=O)N[C@@H](CCC(=O)O)CN(CC(N)=O)C(=O)CC(=O)O)C(=O)CC(=O)O)C(=O)CC(=O)O)C(C)=O)C(C)=O | > 100 | > 100 | > 100 | > 100 | > 100 | > 100 | > 100 | > 100 | 250 | > 500 | – | – | –
CCCCCCCCCCCCCCCC(=O)N[C@@H](CCCCN)CN(CC(N)=O)C(=O)CCCN | 2.5 (≈ 4.88 µM) | 35 (≈ 68.4 µM) | 10 (≈ 19.5 µM) | 1.5 (≈ 2.93 µM) | 2 (≈ 3.91 µM) | 2.5 (≈ 4.88 µM) | 2.5 (≈ 4.88 µM) | 2 (≈ 3.91 µM) | 25 | 40 | 16 | Active | –
CCCCCCCC/C=C\CCCCCCCC(=O)N[C@@H](C)CN(CC(=O)N[C@@H](C)CN(CC(=O)N[C@@H](CC(C)C)CN(CC(=O)N[C@@H](CC(C)C)CN(CC(=O)N[C@@H](CC(C)C)CN(CC(N)=O)C(=O)CCCN)C(=O)CCCN)C(=O)CCCN)C(C)=O)C(C)=O | 3 (≈ 2.28 µM) | 3 (≈ 2.28 µM) | 3 (≈ 2.28 µM) | 3 (≈ 2.28 µM) | 3 (≈ 2.28 µM) | 4 (≈ 3.04 µM) | 3 (≈ 2.28 µM) | 3 (≈ 2.28 µM) | 100 | > 500 | > 167 | Active | Activity (Escherichia coli [8]): Active; Activity (Escherichia coli [9]): Active; Activity (Bacillus subtilis [10]): Active; Activity (Bacillus subtilis [11]): Active; Activity (Escherichia coli [12]): Active; Activity (Bacillus subtilis [13]): Active
CC(=O)N(CC(=O)N[C@@H](C)CN(CC(=O)N[C@@H](CC(C)C)CN(CC(=O)N[C@@H](CC(C)C)CN(CC(=O)N[C@@H](CC(C)C)CN(CC(N)=O)C(=O)CCCN)C(=O)CCCN)C(=O)CCCN)C(C)=O)C[C@H](C)N | > 100 | > 100 | > 100 | > 100 | > 100 | > 100 | > 100 | > 100 | 120 | > 500 | – | – | –
CCCCCCCCCCCC(=O)N[C@@H](CCCCN)CN(CC(N)=O)C(=O)CCCN | > 50 | > 50 | > 50 | > 50 | > 50 | > 50 | > 50 | > 50 | 400 | > 500 | – | – | –
